Species: Rattus norvegicus
Assay: Open TG-GATES - Regimen: Single
Type: toxicity, organism-based, Sprague-Dawley
Set-up: regimen Single, gender Male, age 6 weeks
Details: in vivo, po, 100 mg/kg, route gavage, dose level Middle; for APTT / Bas / Eos / Fbg / Hb / Ht / Lym / MCH / MCHC / MCV / Mono / Neu / PT / Plat / RBC / Ret / WBC: tissue Blood; for KIDNEY_L / KIDNEY_R / KIDNEY_TOTAL: tissue Kidney; for LIVER: tissue Liver; for ALP / ALT / AST / BUN / CRE / Ca / Cl / DBIL / GLC / IP / K / LDH / Na / PL / RALB / TBIL / TC / TG / TP / gamma-GTP: tissue Plasma

## COc1cc([C@@H]2c3cc4c(cc3[C@@H](O[C@@H]3O[C@@H]5CO[C@@H](C)O[C@H]5[C@H](O)[C@H]3O)[C@H]3COC(=O)[C@H]23)OCO4)cc(OC)c1O [ETOPOSIDE]
3 h
  TERMINAL_BW: 196.5 g
  APTT: 17 s
  Bas: 0%
  Eos: 1%
  Fbg: 184.4 mg/dL
  Hb: 13.6 g/dL
  Ht: 40.5%
  Lym: 78.6%
  MCH: 21.7 pg
  MCHC: 33.7%
  MCV: 64.4 fL
  Mono: 8.2%
  Neu: 12.2%
  PT: 12.3 s
  Plat: 118 x10_4/uL
  RBC: 628.4 x10_4/ul
  Ret: 9.8%
  WBC: 104.2 x10_2/uL
  KIDNEY_L: 0.9 g
  KIDNEY_R: 0.9 g
  KIDNEY_TOTAL: 1.8 g
  LIVER: 9.1 g
  ALP: 1074.8 IU/L
  ALT: 36 IU/L
  AST: 69.4 IU/L
  BUN: 13.8 mg/dL
  CRE: 0.5 mg/dL
  Ca: 10.6 mg/dL
  Cl: 103.8 meq/L
  DBIL: 0.026 mg/dL
  GLC: 193 mg/dL
  IP: 9.6 mg/dL
  K: 4.3 meq/L
  LDH: 111 IU/L
  Na: 141.6 meq/L
  PL: 137.2 mg/dL
  RALB: 3.4 g/dL
  TBIL: 0.3 mg/dL
  TC: 78.6 mg/dL
  TG: 45.4 mg/dL
  TP: 5.2 g/dL
  gamma-GTP: 1.4 IU/L
6 h
  TERMINAL_BW: 198.5 g
  APTT: 17.4 s
  Bas: 0%
  Eos: 1%
  Fbg: 198 mg/dL
  Hb: 13.6 g/dL
  Ht: 40.5%
  Lym: 76.6%
  MCH: 21.9 pg
  MCHC: 33.7%
  MCV: 65.1 fL
  Mono: 9.8%
  Neu: 13%
  PT: 11.9 s
  Plat: 110.3 x10_4/uL
  RBC: 622 x10_4/ul
  Ret: 10%
  WBC: 69.6 x10_2/uL
  KIDNEY_L: 0.9 g
  KIDNEY_R: 0.9 g
  KIDNEY_TOTAL: 1.9 g
  LIVER: 8.9 g
  ALP: 933.8 IU/L
  ALT: 29.4 IU/L
  AST: 62.2 IU/L
  BUN: 11.4 mg/dL
  CRE: 0.6 mg/dL
  Ca: 10.7 mg/dL
  Cl: 105 meq/L
  DBIL: 0.02 mg/dL
  GLC: 196.2 mg/dL
  IP: 10.5 mg/dL
  K: 4.7 meq/L
  LDH: 98.4 IU/L
  Na: 141.6 meq/L
  PL: 137.8 mg/dL
  RALB: 3.3 g/dL
  TBIL: 0.4 mg/dL
  TC: 78 mg/dL
  TG: 40.2 mg/dL
  TP: 5.3 g/dL
  gamma-GTP: 0.8 IU/L
9 h
  TERMINAL_BW: 197 g
  APTT: 16.9 s
  Bas: 0%
  Eos: 1%
  Fbg: 206.8 mg/dL
  Hb: 13 g/dL
  Ht: 38.8%
  Lym: 77.8%
  MCH: 21.5 pg
  MCHC: 33.5%
  MCV: 64.3 fL
  Mono: 6.8%
  Neu: 14.6%
  PT: 11.2 s
  Plat: 109 x10_4/uL
  RBC: 604.2 x10_4/ul
  Ret: 8.2%
  WBC: 72.5 x10_2/uL
  KIDNEY_L: 0.9 g
  KIDNEY_R: 1 g
  KIDNEY_TOTAL: 1.9 g
  LIVER: 8.5 g
  ALP: 842.6 IU/L
  ALT: 33.4 IU/L
  AST: 63.6 IU/L
  BUN: 12.8 mg/dL
  CRE: 0.5 mg/dL
  Ca: 10.4 mg/dL
  Cl: 105.8 meq/L
  DBIL: 0.048 mg/dL
  GLC: 199 mg/dL
  IP: 10.6 mg/dL
  K: 4.6 meq/L
  LDH: 78.4 IU/L
  Na: 143.2 meq/L
  PL: 114 mg/dL
  RALB: 3.5 g/dL
  TBIL: 0.4 mg/dL
  TC: 67.6 mg/dL
  TG: 27.6 mg/dL
  TP: 5.4 g/dL
  gamma-GTP: 1.6 IU/L
24 h
  TERMINAL_BW: 207.9 g
  APTT: 16 s
  Bas: 0%
  Eos: 1%
  Fbg: 206 mg/dL
  Hb: 13.4 g/dL
  Ht: 39.8%
  Lym: 86.4%
  MCH: 21.4 pg
  MCHC: 33.7%
  MCV: 63.4 fL
  Mono: 4.8%
  Neu: 8%
  PT: 11.7 s
  Plat: 113.3 x10_4/uL
  RBC: 628.4 x10_4/ul
  Ret: 7.4%
  WBC: 74.6 x10_2/uL
  KIDNEY_L: 1 g
  KIDNEY_R: 1 g
  KIDNEY_TOTAL: 2 g
  LIVER: 9.3 g
  ALP: 999.2 IU/L
  ALT: 30.4 IU/L
  AST: 64.8 IU/L
  CRE: 0.5 mg/dL
  Ca: 10.9 mg/dL
  Cl: 104.8 meq/L
  DBIL: 0.028 mg/dL
  GLC: 192.4 mg/dL
  IP: 9.1 mg/dL
  K: 5 meq/L
  LDH: 94.6 IU/L
  Na: 140.6 meq/L
  PL: 134.4 mg/dL
  RALB: 3.6 g/dL
  TBIL: 0.3 mg/dL
  TC: 78.2 mg/dL
  TG: 60 mg/dL
  TP: 5.5 g/dL
  gamma-GTP: 1.2 IU/L
